Laboratory results reported in patent publication US5066652A, “Thiomethyl and sulfinylmethyl derivatives having gastric acid antisectetory activity and pharmaceutical compositions containing them” (Chiesi Farmaceutici S.p.A., priority 1988, dated 1991).
Structures can show the parent of a compound that is named as a salt. Where two headings read alike, the source gives them in different places.

Key:
[1] = Toxicity after single administration (acute toxicity, oral); details: mouse, in vivo, mice, p.o., lethality 7 days after treatment, Probits method, read-out: Acute Toxicity (DL50 approx. mg/kg p.o.)
Method: Toxicity after single administration.
The tests have been carried out in IVA:NMRI (SPF) mice fasted with water ad libitum since 18 hours before treatment.
The compounds were administered by the oral route, at constant volume (10 ml/kg) in a 0.2% aqueous solution of Tween 80.
On the basis of lethality observed 7 days after the treatment, the approximate LD50 were determined according to the Probits method.

[2] = system: secretion of hydrochloric acid in the stomach (Shay ulcers); experiment: Antisecretory activity - Shay ulcers (pylorus-ligated rat); assay type: in vivo; details: for Emax: Rattus norvegicus, α=1 represents 100% inhibition of gastric acid hypersecretion, read-out: α (approximate value of intrinsic activity); for Emax / ED50: 2 h; for ED50: rat, pylorus ligation, intraduodenal or intravenous; for PR (potency ratio in comparison with Omeprazole): ratio of mean ED50 on the 3 parameters of test compound to mean ED50 of omeprazole
Method: Antisecretory activity--Shay ulcers The gastric secretory inhibitory activity of the compounds of general formula (I) was determined in case of hypersecretion induced in the rat by ligation of gastroduodenal junction according to the procedure described by Shay (Shay H. et al, Gasgroenterology 5, 43-61, 1945). […] Thereafter, they were fasted for 24 hours, with water ad libitum, which period was sufficient to assure a good gastric emptying, then laparectomized under light ether anesthesia, so as to allow to effect a pylorus ligation as closer as possible to the gastroduodenal junction. Two hours after the ligation, the animals were killed by means of an ether excess and stomaches were removed. Gastric contents were recovered, after filtration through a gauze, and placed in graduated test-tubes and centrifuged at 3000×g for 15 minutes. The following parameters were evaluated on the surnatant: volume (ml); pH; free acidity by conversion of pH into H^+ μEq by means of Moore table (Ann. New York Acad. Sci. 1967, 866-874); titrable acidity, by titration of an amount with 0.02N NaOH, using phenolphtalein as the indicator. […] The results were expressed as percent inhibition of hypersecretion induced by pylorus ligation in the control rats. The obtained results are reported in table 3 as: ED50 (μmol/kg) calculated on the basis of the equation of the linear tract of does-effect curves obtained with the test compounds on volume, free and titrable acidities; […]

[3] = system: gastric hemorrhagic lesions induced by absolute ethanol; experiment: Protection against gastric lesions induced in rats by necrotizing agents (absolute ethanol); assay type: in vivo; details: po; rat, gavage 30 minutes before 1 ml absolute ethanol; lesion score ≤ 2 considered protected
Method: Protection against gastric lesions induced in rats by necrotizing agents
The experiments were done on male rats weighing 260-300 g starved (with free access to water) for 18 hours.
Absolute ethanol was administered by gavage in the volume of 1 ml.
Test substances or the vehicle alone for the controls were given by gavage 30 minutes before the necrotizing agent in a 5% suspension of methylcellulose volume 2.5 ml kg^-1. One hour after administration of the necrotizing agent, the animals were killed and examined for lesions of the glandular portion of the gastric mucosa. The lesions presenting as blackish lesions grouped in patches of varying size, usually parallel to the major axis of the stomach, were scored according to the following arbitrary scale:
1=hyperemic mucosa, or up to 3 small patches;
2=from 4 to 10 small patches;
3=more than 10 small or up to 3 medium-sized patches;
4=from 4 to 6 medium-sized patches;
5=more than 6 medium-sized or up to 3 large patches;
6=from 4 to 6 large patches;
7=from 7 to 10 large patches;
8=more than 10 large patches or extensive necrotic zones.
"Small"0 was defined as up to 2 mm across (max diameter), "medium-sized" as between 2 and 4 mm across and "large" as more than 4 mm across.
Animals with gastric lesion score ≤ 2 were considered protected.
ED50 values were calculated according to Wilcoxon method.
The results are expressed in table 5.

[4] = system: secretion of hydrochloric acid in the stomach; experiment: Lumen-perfused rat stomach in situ (histamine-induced hypersecretion); assay type: in vivo; details: for ED50: histamine 35 mcg/kg/min, 3 hours; for ED50 / α (intrinsic activity): intraduodenal; for α (intrinsic activity): histamine; for PR = potency ratio: in comparison with omeprazole
Method: Lumen-perfused rat stomach in situ The experiments were done according to Ghosh M. N. and Schild H. O. (Br. J. Pharmacol. 13, 54-61, 1958). […] After a midline abdominal incision, a PVC tube was inserted into the stomach via the esophagus and the stomach was perfused with saline (37° C.) at a rate of 1 ml/min. A second tube draining the pylorus was inserted through the abdominal wall for collection of gastric secretion. […] After equilibration of basal secretion an hypersecretion was induced by infusion of histamine 35 mcg/kg/min, through the femoral vein. […] Mean gastric output was determined for a 3 hours test period following drug administration. The last 30 minutes interval prior to dosing was used as a control. The dose-response relationship was established using the maximum inhibition obtained at each individual dose.

stomach of animals = details: animals treated over a long period; cited from earlier work
[5] = free acid output, read-out: ED50 free acid output
[6] = secretion volume, read-out: ED50 volume
[7] = titratable acid output, read-out: ED50 titratable acid output
[8] = read-out: ED50 free acid output
[9] = read-out: ED50 titratable acid output

[O-][S+](Cc1ccc2ccccc2n1)c1nc2cccnc2[nH]1 (stereo not drawn) [LI, 2-(2'-quinolylmethylsulfinyl)imidazo-[4,5-b]-pyridine] showed an LD50 at 168 h [1] of roughly 750 mg/kg, an Emax [2] of 100% and an ED50 [2, 5] of 4.8 µmol/kg. For the same compound, the ED50 [2, 6] was 10.3 µmol/kg, the ED50 [2, 7] was 5.6 µmol/kg and the “PR (potency ratio in comparison with Omeprazole)” value [2] was 2,5. The ED50 [3] was 20 mg/kg.

Compound COc1ccc2[nH]c([S+]([O-])Cc3ncc(C)c(OC)c3C)nc2c1 (stereo not drawn) [Omeprazole HCL, reference compound] has an LD50 at 168 h [1] of roughly 1400 mg/kg.

COc1ccc2[nH]c([S+]([O-])Cc3ncc(C)c(OC)c3C)nc2c1 (stereo not drawn) [Omeprazole, reference compound] showed an Emax [2] of 100%, an ED50 [2, 5] of 1.8 µmol/kg and an ED50 [2, 6] of 4.2 µmol/kg. The ED50 [2, 7] was 2.3 µmol/kg, the ED50 [4, 8] was 2.23 µmol/kg and the ED50 [4, 9] was 2.3 µmol/kg. For the same compound, the “α (intrinsic activity)” value [4] was 1, the ED50 [3] was 73 mg/kg and the “carcinomas at the bottom of the stomach” value (stomach of animals) was “high incidence of carcinomas”.

For Cn1ccnc1SCc1nc2cc(C(=O)c3ccccc3)ccc2[nH]1 [X, 1-methyl-2-[2'-(5'-benzoyl)-benzimidazolylmethylthio]imidazole. 2H3 PO4], the LD50 at 168 h [1] was roughly 1400 mg/kg, the Emax [2] was 70 to 80% and the ED50 [2, 5] was 2.7 µmol/kg. The ED50 [2, 6] was 10 µmol/kg, the ED50 [2, 7] was 2.7 µmol/kg and the “PR (potency ratio in comparison with Omeprazole)” value [2] was 1,9.

For CN(C)c1ccccc1CSc1nccn1C [XI, 1-methyl-2-[2'-(N,N-dimethylanilyl)methylthio]imidazole. 2HCl], the LD50 at 168 h [1] was roughly 450 mg/kg, the Emax [2] was 100% and the ED50 [2, 5] was 31.9 µmol/kg. For the same compound, the ED50 [2, 6] was 40 µmol/kg, the ED50 [2, 7] was 29.6 µmol/kg and the “PR (potency ratio in comparison with Omeprazole)” value [2] was 12,2. The ED50 [4, 8] was 60.6 µmol/kg, the ED50 [4, 9] was 40.9 µmol/kg and the “α (intrinsic activity)” value [4] was 1. The “PR = potency ratio” value [4] was 22.4 and the ED50 [3] was 20 mg/kg.

With CN(C)c1ccccc1CSc1nccn1-c1cccc(F)c1 [XIX, 1-(3'-fluorophenyl)-2-[2'-(N,N-dimethylanilyl)methylthio]imidazole.2HCl] the LD50 at 168 h [1] was roughly 1000 mg/kg, the Emax [2] was 100% and the ED50 [2, 5] was 47.3 µmol/kg. The ED50 [2, 6] was 108 µmol/kg, the ED50 [2, 7] was 64.3 µmol/kg and the “PR (potency ratio in comparison with Omeprazole)” value [2] was 26,4. The ED50 [4, 8] was 32.2 µmol/kg, the ED50 [4, 9] was 26.7 µmol/kg and the “α (intrinsic activity)” value [4] was 1. The “PR = potency ratio” value [4] was 13.0 and the ED50 [3] was 70 mg/kg.

With COc1ccc(C)nc1CSc1ncnc2[nH]cnc12 [XLIII] the Emax [2] was 100%, the ED50 [2, 5] was 83 µmol/kg and the ED50 [2, 6] was 89 µmol/kg. For the same compound, the ED50 [2, 7] was 81.6 µmol/kg, the “PR (potency ratio in comparison with Omeprazole)” value [2] was 30,6 and the ED50 [3] was 60 mg/kg.

Work on COc1ccnc(CSc2nccn2-c2cccc(F)c2)c1C [XX, 1-(3'-fluorophenyl)-2-[2'-(3'-methyl-4'-methoxypyridyl)methylthio]imidazole] yielded an Emax [2] of 70 to 80%, an ED50 [2, 5] of 65 µmol/kg and an ED50 [2, 6] of 80 µmol/kg. The ED50 [2, 7] was 65 µmol/kg, the “PR (potency ratio in comparison with Omeprazole)” value [2] was 25,3 and the ED50 [3] was 50 mg/kg.

Fc1cccc(-n2ccnc2SCc2nc3ccccc3[nH]2)c1 [XXI, 1-(3'-fluorophenyl)-2-[2'-(benzimidazolyl)methylthio]imidazole.2HCl] gave an LD50 at 168 h [1] of roughly 900 mg/kg, an Emax [2] of 100% and an ED50 [2, 5] of 27 µmol/kg. The ED50 [2, 6] was 38 µmol/kg, the ED50 [2, 7] was 29 µmol/kg and the “PR (potency ratio in comparison with Omeprazole)” value [2] was 11,3. The ED50 [3] was 70 mg/kg.

c1ccc(-n2ccnc2SCc2nc3ccccc3[nH]2)cc1 [XXII, 1-phenyl-2-[2'-(benzimidazolyl)methylthio]imidazole.2HCl] gave an LD50 at 168 h [1] of roughly 1000 mg/kg, an Emax [2] of 80% and an ED50 [2, 5] of 16.8 µmol/kg. For the same compound, the ED50 [2, 6] was 30.5 µmol/kg, the ED50 [2, 7] was 22.3 µmol/kg and the “PR (potency ratio in comparison with Omeprazole)” value [2] was 8,4. For the same compound, the ED50 [3] was 63 mg/kg.

With Fc1ccc(-n2ccnc2SCc2nc3ccccc3[nH]2)cc1 [XXIV] the LD50 at 168 h [1] was roughly 2000 mg/kg, the Emax [2] was 70 to 80% and the ED50 [2, 5] was 12.5 µmol/kg. The ED50 [2, 6] was 20.5 µmol/kg, the ED50 [2, 7] was 15.7 µmol/kg and the “PR (potency ratio in comparison with Omeprazole)” value [2] was 5,9. For the same compound, the ED50 [3] was 47 mg/kg.

Work on COc1ccc(-n2ccnc2SCc2ccccc2N(C)C)cc1 [XXIX, 1-(4'-methoxyphenyl)-2-[2 '-(N,N-dimethylanilyl)methylthio]imidazole.2HCl] yielded an LD50 at 168 h [1] greater than 2000 mg/kg, an Emax [2] of 100% and an ED50 [2, 5] of 86.1 µmol/kg. The ED50 [2, 6] was 144 µmol/kg, the ED50 [2, 7] was 107 µmol/kg and the “PR (potency ratio in comparison with Omeprazole)” value [2] was 40,7.

In the case of CN(C)c1ccccc1CSc1nccn1-c1ccccc1 [XXVIII, 1-phenyl-2-[2'-(N,N-dimethylanilyl)methylthio]imidazole. 2HCl], the Emax [2] is reported as 100%, the ED50 [2, 5] is reported as 40.6 µmol/kg and the ED50 [2, 6] is reported as 55.4 µmol/kg. The ED50 [2, 7] was 44.9 µmol/kg, the “PR (potency ratio in comparison with Omeprazole)” value [2] was 17,0 and the ED50 [4, 8] was 31.4 µmol/kg. For the same compound, the ED50 [4, 9] was 19.9 µmol/kg, the “α (intrinsic activity)” value [4] was 1 and the “PR = potency ratio” value [4] was 11.3.
